Series [1] can be described thus: Absorption characteristics (water uptake / hygroscopic behaviour as a function of relative humidity). It is filed as physicochemical. Particulars: for change into a hydrate phase: with rising relative humidity (free base: above 50% r.h.); for hygroscopic characteristics / behaviour: absorption characteristics, FIG. 7 / FIG. 10.
Series [2] in a line: Humidity-dependent X-ray powder images (phase change). The class given is physicochemical. How it is done: The X-ray powder diagrams, with one exception, were recorded using an STOE Stadi P X-ray powder diffractometer. This diffractometer operates with CuKα1 radiation (gamma=1.5406 Angstroms) and a location-sensitive detector. The X-ray generator was operated at 40 mA and 40 kV.
The X-ray powder diagram of the monohydrate of the free base was recorded with a Bruker D8 Advance X-ray powder diffractometer on which a special air humidity cell made by MRI had been placed. The diagram was recorded at about 72% r.h. The Bruker D8 Advance operates with CuKα radiation (gamma=1.5418 Angstroms) and also a location-sensitive detector. The X-ray generator was operated at 30 mA and 40 kV.

SMILES strings stand for the structures.

This is an account of results in patent US8637530B2, “8-(3-amino-piperidin-1-yl)-xanthines, their preparation, and their use as pharmaceuticals” (Boehringer Ingelheim International GmbH, priority 2005, dated 2014).

Take `CC#CCn1c(N2CCC[C@@H](N)C2)nc2c1c(=O)n(Cc1ncccc1C#N)c(=O)n2C` [Example 2, 1-[(3-cyano-pyridin-2-yl)methyl]-3-methyl-7-(2-butyn-1-yl)-8-(3-(R)-amino-piperidin-1-yl)-xanthine]: the water taken up result in series [1] (above 50% r.h., FIG. 4) was “about 4%”. In addition, the “relative humidity up to which the anhydrous form is stable” value in series [1] (anhydrous form, FIG. 4) was “up to 50%”. The “reversibility of the conversion into the monohydrate” value in series [1] (relative humidity brought back to 50% or less) is “totally reversible”. The “change into a hydrate phase” value in series [1] is “changes into a monohydrate”.
On to `CC#CCn1c(N2CCC[C@@H](N)C2)nc2c1c(=O)n(Cc1ncccc1C#N)c(=O)n2C.Cl` [Example 3, 1-[(3-cyano-pyridin-2-yl)methyl]-3-methyl-7-(2-butyn-1-yl)-8-[(R)-3-amino-piperidin-1-yl]-xanthine monohydrochloride], for which, in series [1] (FIG. 7), the “relative humidity at which water is absorbed” value is above 80 % r.h. Further, in series [1], the “hygroscopic characteristics / behaviour” value is given as “less marked hygroscopic characteristics” and the “change into a hydrate phase” value is recorded as “no reversible change into a hydrate phase”. Also, the phase change result in series [2] (above 80% r.h.) is “no phase change”.
For the compound `CC#CCn1c(N2CCC[C@@H](N)C2)nc2c1c(=O)n(Cc1ncccc1C#N)c(=O)n2C.Cl.Cl` [Example 4, 1-[(3-cyano-pyridin-2-yl)methyl]-3-methyl-7-(2-butyn-1-yl)-8-[(R)-3-amino-piperidin-1-yl]-xanthine-dihydrochloride], in series [1], the “hygroscopic characteristics / behaviour” value is reported as “unremarkable hygroscopic behaviour” and the “change into a hydrate phase” value is listed as “no reversible change into a hydrate phase”. In addition, the “water uptake over relative humidity” value in series [1] (whole range of relative humidities, FIG. 10) is on record as “takes up a certain amount of water continuously over the whole range of relative humidities”. Moreover, in series [2] (humidity range from 10-90 r.h.), the phase change result was “no phase change”.
